Measurements from the NIST ThermoML archive (doi:10.1021/je200589f).
± gives the expanded uncertainty stated by the source.

What was measured:
[1] = for viscosity / mass density: 101.33 kPa, Liquid; for surface tension liquid-gas: Pendant drop shape; for mass density: Vibrating tube method
[2] = refractive index (Na D-line) (dimensionless); conditions: 101.33 kPa, Liquid, Standard Abbe refractometry

Cn1cc[n+](CCCCCCO)c1.[Cl-] [3-(6-hydroxyhexyl)-1-methylimidazolium chloride]
viscosity ([1]; 293.15 K): 1025.9 ± 130 mPa·s | surface tension liquid-gas ([1]; 298.15 K): 49.95 ± 0.77 mN/m | viscosity ([1]; 298.15 K): 679.8 ± 72 mPa·s | surface tension liquid-gas ([1]; 303.15 K): 48.75 ± 0.76 mN/m | viscosity ([1]; 303.15 K): 489.7 ± 46 mPa·s | mass density ([1]; 303.15 K): 1119.49 ± 1.1 kg/m3 | surface tension liquid-gas ([1]; 308.15 K): 47.75 ± 0.75 mN/m | viscosity ([1]; 308.15 K): 357.6 ± 29 mPa·s | mass density ([1]; 308.15 K): 1116.65 ± 1.1 kg/m3 | surface tension liquid-gas ([1]; 313.15 K): 46.65 ± 0.73 mN/m | viscosity ([1]; 313.15 K): 249.7 ± 16 mPa·s | mass density ([1]; 313.15 K): 1113.91 ± 1.1 kg/m3 | surface tension liquid-gas ([1]; 318.15 K): 45.35 ± 0.72 mN/m | viscosity ([1]; 318.15 K): 188 ± 10 mPa·s | mass density ([1]; 318.15 K): 1111.28 ± 1.1 kg/m3 | surface tension liquid-gas ([1]; 323.15 K): 43.95 ± 0.71 mN/m | viscosity ([1]; 323.15 K): 143.4 ± 6.3 mPa·s | mass density ([1]; 323.15 K): 1108.63 ± 1.1 kg/m3 | viscosity ([1]; 328.15 K): 116.6 ± 4.2 mPa·s | mass density ([1]; 328.15 K): 1105.92 ± 1.1 kg/m3 | viscosity ([1]; 333.15 K): 91.2 ± 2.4 mPa·s | mass density ([1]; 333.15 K): 1103.4 ± 1.1 kg/m3 | viscosity ([1]; 338.15 K): 75.7 ± 1.6 mPa·s | mass density ([1]; 338.15 K): 1100.78 ± 1 kg/m3 | viscosity ([1]; 343.15 K): 60.6 ± 1 mPa·s | mass density ([1]; 343.15 K): 1098.14 ± 1 kg/m3 | viscosity ([1]; 348.15 K): 51.3 ± 0.7 mPa·s | mass density ([1]; 348.15 K): 1095.59 ± 1 kg/m3 | viscosity ([1]; 353.15 K): 43.8 ± 0.7 mPa·s | mass density ([1]; 353.15 K): 1092.92 ± 1 kg/m3 | refractive index ([2]; 293.15 K): 1.5106 ± 0.0005 | refractive index ([2]; 298.15 K): 1.5093 ± 0.0005 | refractive index ([2]; 303.15 K): 1.508 ± 0.0005 | refractive index ([2]; 308.15 K): 1.5067 ± 0.0005 | refractive index ([2]; 313.15 K): 1.5054 ± 0.0005 | refractive index ([2]; 318.15 K): 1.5041 ± 0.0005 | refractive index ([2]; 323.15 K): 1.5028 ± 0.0005 | refractive index ([2]; 328.15 K): 1.5015 ± 0.0005 | refractive index ([2]; 333.15 K): 1.5002 ± 0.0005

CCn1cc[n+](CCCCCCO)c1.[Cl-] [1-ethyl-3-(6-hydroxyhexyl)-1H-imidazolium chloride]
viscosity ([1]; 293.15 K): 1348.1 ± 180 mPa·s | surface tension liquid-gas ([1]; 298.15 K): 42.32 ± 0.69 mN/m | viscosity ([1]; 298.15 K): 861.7 ± 100 mPa·s | surface tension liquid-gas ([1]; 303.15 K): 41.3 ± 0.68 mN/m | viscosity ([1]; 303.15 K): 604.5 ± 61 mPa·s | mass density ([1]; 303.15 K): 1101.74 ± 1.1 kg/m3 | surface tension liquid-gas ([1]; 308.15 K): 39.95 ± 0.67 mN/m | viscosity ([1]; 308.15 K): 431.3 ± 38 mPa·s | mass density ([1]; 308.15 K): 1098.91 ± 1 kg/m3 | surface tension liquid-gas ([1]; 313.15 K): 38.75 ± 0.66 mN/m | viscosity ([1]; 313.15 K): 294 ± 21 mPa·s | mass density ([1]; 313.15 K): 1096.23 ± 1 kg/m3 | surface tension liquid-gas ([1]; 318.15 K): 37.4 ± 0.64 mN/m | viscosity ([1]; 318.15 K): 217.7 ± 13 mPa·s | mass density ([1]; 318.15 K): 1093.53 ± 1 kg/m3 | surface tension liquid-gas ([1]; 323.15 K): 36.25 ± 0.63 mN/m | viscosity ([1]; 323.15 K): 163.9 ± 8.1 mPa·s | mass density ([1]; 323.15 K): 1090.95 ± 1 kg/m3 | viscosity ([1]; 328.15 K): 132.2 ± 5.4 mPa·s | mass density ([1]; 328.15 K): 1088.27 ± 1 kg/m3 | viscosity ([1]; 333.15 K): 102.6 ± 3.2 mPa·s | mass density ([1]; 333.15 K): 1085.63 ± 1 kg/m3 | viscosity ([1]; 338.15 K): 84.7 ± 2.1 mPa·s | mass density ([1]; 338.15 K): 1083.07 ± 1 kg/m3 | viscosity ([1]; 343.15 K): 67.8 ± 1.2 mPa·s | mass density ([1]; 343.15 K): 1080.43 ± 1 kg/m3 | viscosity ([1]; 348.15 K): 57.4 ± 0.9 mPa·s | mass density ([1]; 348.15 K): 1077.84 ± 1 kg/m3 | viscosity ([1]; 353.15 K): 49.1 ± 0.8 mPa·s | mass density ([1]; 353.15 K): 1075.27 ± 0.99 kg/m3 | refractive index ([2]; 293.15 K): 1.5115 ± 0.0005 | refractive index ([2]; 298.15 K): 1.5102 ± 0.0005 | refractive index ([2]; 303.15 K): 1.5089 ± 0.0005 | refractive index ([2]; 308.15 K): 1.5076 ± 0.0005 | refractive index ([2]; 313.15 K): 1.5063 ± 0.0005 | refractive index ([2]; 318.15 K): 1.505 ± 0.0005 | refractive index ([2]; 323.15 K): 1.5037 ± 0.0005 | refractive index ([2]; 328.15 K): 1.5024 ± 0.0005 | refractive index ([2]; 333.15 K): 1.5011 ± 0.0005

CCCCn1cc[n+](CCCCCCO)c1.[Cl-] [1-butyl-3-(6-hydroxyhexyl)-1H-imidazolium chloride]
viscosity ([1]; 293.15 K): 1489.7 ± 200 mPa·s | surface tension liquid-gas ([1]; 298.15 K): 32.05 ± 0.59 mN/m | viscosity ([1]; 298.15 K): 983.3 ± 120 mPa·s | surface tension liquid-gas ([1]; 303.15 K): 30.8 ± 0.58 mN/m | viscosity ([1]; 303.15 K): 707 ± 76 mPa·s | mass density ([1]; 303.15 K): 1063.33 ± 0.97 kg/m3 | surface tension liquid-gas ([1]; 308.15 K): 29.65 ± 0.57 mN/m | viscosity ([1]; 308.15 K): 515.8 ± 49 mPa·s | mass density ([1]; 308.15 K): 1060.6 ± 0.96 kg/m3 | surface tension liquid-gas ([1]; 313.15 K): 28.35 ± 0.56 mN/m | viscosity ([1]; 313.15 K): 360.3 ± 29 mPa·s | mass density ([1]; 313.15 K): 1057.85 ± 0.96 kg/m3 | surface tension liquid-gas ([1]; 318.15 K): 27.3 ± 0.55 mN/m | viscosity ([1]; 318.15 K): 271.5 ± 19 mPa·s | mass density ([1]; 318.15 K): 1055.25 ± 0.95 kg/m3 | surface tension liquid-gas ([1]; 323.15 K): 25.9 ± 0.54 mN/m | viscosity ([1]; 323.15 K): 207.7 ± 12 mPa·s | mass density ([1]; 323.15 K): 1052.52 ± 0.95 kg/m3 | viscosity ([1]; 328.15 K): 169.4 ± 8.6 mPa·s | mass density ([1]; 328.15 K): 1049.89 ± 0.94 kg/m3 | viscosity ([1]; 333.15 K): 133 ± 5.5 mPa·s | mass density ([1]; 333.15 K): 1047.18 ± 0.93 kg/m3 | viscosity ([1]; 338.15 K): 110.8 ± 3.8 mPa·s | mass density ([1]; 338.15 K): 1044.46 ± 0.93 kg/m3 | viscosity ([1]; 343.15 K): 89.4 ± 2.3 mPa·s | mass density ([1]; 343.15 K): 1041.73 ± 0.92 kg/m3 | viscosity ([1]; 348.15 K): 76.1 ± 1.6 mPa·s | mass density ([1]; 348.15 K): 1039.05 ± 0.92 kg/m3 | viscosity ([1]; 353.15 K): 65.3 ± 1.1 mPa·s | mass density ([1]; 353.15 K): 1036.32 ± 0.91 kg/m3 | refractive index ([2]; 293.15 K): 1.5132 ± 0.0005 | refractive index ([2]; 298.15 K): 1.5119 ± 0.0005 | refractive index ([2]; 303.15 K): 1.5106 ± 0.0005 | refractive index ([2]; 308.15 K): 1.5093 ± 0.0005 | refractive index ([2]; 313.15 K): 1.508 ± 0.0005 | refractive index ([2]; 318.15 K): 1.5067 ± 0.0005 | refractive index ([2]; 323.15 K): 1.5054 ± 0.0005 | refractive index ([2]; 328.15 K): 1.5041 ± 0.0005 | refractive index ([2]; 333.15 K): 1.5028 ± 0.0005

OCCCCCCn1cc[nH+]c1.[Cl-] [1-(6-hydroxyhexyl)imidazolium chloride]
viscosity ([1]; 293.15 K): 587.2 ± 59 mPa·s | surface tension liquid-gas ([1]; 298.15 K): 51.25 ± 0.78 mN/m | viscosity ([1]; 298.15 K): 420 ± 36 mPa·s | surface tension liquid-gas ([1]; 303.15 K): 50.05 ± 0.77 mN/m | viscosity ([1]; 303.15 K): 320.1 ± 24 mPa·s | mass density ([1]; 303.15 K): 1136.59 ± 1.1 kg/m3 | surface tension liquid-gas ([1]; 308.15 K): 48.85 ± 0.76 mN/m | viscosity ([1]; 308.15 K): 245.6 ± 16 mPa·s | mass density ([1]; 308.15 K): 1133.52 ± 1.1 kg/m3 | surface tension liquid-gas ([1]; 313.15 K): 47.75 ± 0.75 mN/m | viscosity ([1]; 313.15 K): 180.5 ± 9.6 mPa·s | mass density ([1]; 313.15 K): 1130.53 ± 1.1 kg/m3 | surface tension liquid-gas ([1]; 318.15 K): 46.4 ± 0.73 mN/m | viscosity ([1]; 318.15 K): 140.6 ± 6.1 mPa·s | mass density ([1]; 318.15 K): 1127.58 ± 1.1 kg/m3 | surface tension liquid-gas ([1]; 323.15 K): 44.95 ± 0.72 mN/m | viscosity ([1]; 323.15 K): 110.4 ± 3.7 mPa·s | mass density ([1]; 323.15 K): 1124.63 ± 1.1 kg/m3 | viscosity ([1]; 328.15 K): 91.4 ± 2.4 mPa·s | mass density ([1]; 328.15 K): 1121.67 ± 1.1 kg/m3 | viscosity ([1]; 333.15 K): 72.6 ± 1.4 mPa·s | mass density ([1]; 333.15 K): 1118.72 ± 1.1 kg/m3 | viscosity ([1]; 338.15 K): 60.7 ± 1 mPa·s | mass density ([1]; 338.15 K): 1115.77 ± 1.1 kg/m3 | viscosity ([1]; 343.15 K): 48.9 ± 0.8 mPa·s | mass density ([1]; 343.15 K): 1112.84 ± 1.1 kg/m3 | viscosity ([1]; 348.15 K): 41.3 ± 0.7 mPa·s | mass density ([1]; 348.15 K): 1109.92 ± 1.1 kg/m3 | viscosity ([1]; 353.15 K): 35 ± 0.6 mPa·s | mass density ([1]; 353.15 K): 1107.03 ± 1.1 kg/m3 | refractive index ([2]; 293.15 K): 1.5093 ± 0.0005 | refractive index ([2]; 298.15 K): 1.508 ± 0.0005 | refractive index ([2]; 303.15 K): 1.5067 ± 0.0005 | refractive index ([2]; 308.15 K): 1.5054 ± 0.0005 | refractive index ([2]; 313.15 K): 1.5041 ± 0.0005 | refractive index ([2]; 318.15 K): 1.5028 ± 0.0005 | refractive index ([2]; 323.15 K): 1.5015 ± 0.0005 | refractive index ([2]; 328.15 K): 1.5002 ± 0.0005 | refractive index ([2]; 333.15 K): 1.4989 ± 0.0005
